# Measurements taken from patent publication US20200038513A1, “MODULATORS OF FAK PROTEOLYSIS AND ASSOCIATED METHODS OF USE” (ARVINAS OPERATIONS, INC., priority 2018, published 2020).
# Target: Fak (Homo sapiens, UniProt Q05397)
# Experiment: Fak degradation, immunoblotting in PC3 cells
# Format: cell-based
# Conditions: 24 hour treatment; for Dmax: PC-3, degradation maximum, n = 3
# Method: PC3 cells were cultured in F12-K (Kaighn's Modification of Ham's F-12 Medium), supplemented with 10% fetal bovine serum (FBS) and 1% penicillin-streptomycin at 37° C. and 5% CO2.
# If not indicated otherwise, cells were seeded and grown to 80% confluency and were treated with compound or control for 24 hours. […] After 20 minutes the mixture was spun down at 16,000×g for 10 minutes at 4° C. to pellet insoluble materials. Protein concentration of supernatants were determined via BCA assay (Thermo Fisher) before addition of NuPAGE sample buffer containing 5% β-Me and boiling at 95° C. for 10 minutes. Equal amounts of protein were subjected to SDS-PAGE and subsequent electrophoretic transfer onto nitrocellulose membrane. […] Immunoblots were developed using enhanced chemiluminescence and visualized using a Bio-Rad Chemi-Doc MP Imaging System and quantitated with Image Lab v.5.2.1 software (Bio-Rad Laboratories). Data analysis and statistics was performed using Prism 7.0 (GraphPad).
# Examination of Target Protein (Fak) Degradation.
# Chain of Fak (Q05397 whole entry): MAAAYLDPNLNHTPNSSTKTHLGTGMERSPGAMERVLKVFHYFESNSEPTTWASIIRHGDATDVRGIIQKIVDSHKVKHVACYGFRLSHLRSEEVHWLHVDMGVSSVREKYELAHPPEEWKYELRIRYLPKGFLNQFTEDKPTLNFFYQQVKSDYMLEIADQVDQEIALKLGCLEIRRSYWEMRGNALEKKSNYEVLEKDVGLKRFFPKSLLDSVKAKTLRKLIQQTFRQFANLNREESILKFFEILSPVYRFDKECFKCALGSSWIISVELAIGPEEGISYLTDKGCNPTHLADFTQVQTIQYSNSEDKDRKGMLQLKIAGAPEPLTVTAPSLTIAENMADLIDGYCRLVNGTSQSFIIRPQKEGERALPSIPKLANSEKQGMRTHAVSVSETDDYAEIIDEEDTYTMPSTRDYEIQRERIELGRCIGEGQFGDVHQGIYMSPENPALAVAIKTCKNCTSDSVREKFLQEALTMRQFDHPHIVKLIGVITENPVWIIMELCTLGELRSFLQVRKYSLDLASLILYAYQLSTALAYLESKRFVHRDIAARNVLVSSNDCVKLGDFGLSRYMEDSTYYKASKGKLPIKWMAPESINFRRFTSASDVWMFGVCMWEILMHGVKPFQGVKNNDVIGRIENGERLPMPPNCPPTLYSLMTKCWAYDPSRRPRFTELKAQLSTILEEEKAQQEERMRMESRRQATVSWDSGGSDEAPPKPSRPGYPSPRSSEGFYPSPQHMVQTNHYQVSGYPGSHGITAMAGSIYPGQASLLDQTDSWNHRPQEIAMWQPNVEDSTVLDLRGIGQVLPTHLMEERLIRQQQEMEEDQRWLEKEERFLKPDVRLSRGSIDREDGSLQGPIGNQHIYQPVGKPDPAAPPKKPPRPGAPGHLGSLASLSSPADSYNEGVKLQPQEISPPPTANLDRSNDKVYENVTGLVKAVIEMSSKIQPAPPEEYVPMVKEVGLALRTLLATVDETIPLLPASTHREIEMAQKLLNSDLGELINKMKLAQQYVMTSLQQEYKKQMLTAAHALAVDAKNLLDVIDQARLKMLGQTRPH
SMILES,Dmax (PC3 cells),"DC50 (half-maximal degradation concentration, PC3 cells)","total Fak remaining (serum deprived PC3 cells, 10 nM)","total Fak remaining (serum deprived PC3 cells, 50 nM)","Fak levels (serum deprived PC3 cells, 100 nM through 1 μM)","Fak levels (rebound, hook effect) (serum deprived PC3 cells, 5 μM)","Fak levels (rebound, hook effect) (serum deprived PC3 cells, 10 μM)"
"Cc1ncsc1-c1ccc(CNC(=O)[C@@H]2C[C@@H](O)CN2C(=O)[C@@H](NC(=O)CCOCCOc2ccc(Nc3ncc(C(F)(F)F)c(NCc4cccc(N(C)S(C)(=O)=O)c4)n3)cc2)C(C)(C)C)cc1 [Compound 102, (2S,4R)-1-((S)-3,3-dimethyl-2-(3-(2-(4-((4-((3-(N-methylmethylsulfonamido)benzyl)amino)-5-(trifluoromethyl)pyrimidin-2-yl)amino)phenoxy)ethoxy)propanamido)butanoyl)-4-hydroxy-N-(4-(4-methylthiazol-5-yl)benzyl)pyrrolidine-2-carboxamide]",99%,3.3 nM,34%,5%,undetectable,10%,27%
"CNC(=O)c1ccc(Nc2ncc(C(F)(F)F)c(NCc3nccnc3N(C)S(C)(=O)=O)n2)cc1 [Defactinib, defactinib, reference compound]",0%,,,,,,
